2 molecules from US8763410B2, “Method and apparatus for the dissolution and filtration of a hyperpolarized agent with a neutral dissolution media” (General Electric Company, priority 2008, dated 2014) can be followed below.

Data set [1] is described as follows: pH-solubility profile of the EPA. The data set is classed as physicochemical. The text has this: In an exemplary embodiment of the invention sterile deionized water is placed in the syringe of the sterile fluid path (SFP), a sample of ^13CPA mixed with EPA is placed in the sample container and NaOH, TRIS, and EDTA are placed in the receiver. Size exclusion filters are placed in the filter cartridge. In this embodiment, the pH-solubility profile of the EPA is considered.

A short description of data set [2]: Measure of pH and EPA residual after neutral (water) dissolution and size exclusion filtration. The following applies: 22 g water 130° C., 250 psi; receiver 10 g of 360 mM NaOH, 200 mM TRIS, 268 μM EDTA; two 20 μm frits. As to the method:
A fluid path syringe was filled with 22 g of 18.2 MΩcm water and 10 g of 360 mM NaOH, 200 mM TRIS and 268 μM EDTA was placed in the fluid path receiver. A mixture of ^12C pyruvic acid and EPA were in the approximate ratio of 53:1 was placed in the sample container of the fluid path. The water in the syringe was heated to 130° C. and was pressurized to 250 psi. The filter body was filled with two frits used as particle size exclusion filters (Varian, part number 12131043, 1.5″ diameter, average pore size 20 μm).

Take “tris {8-carboxyl-2,2,6,6-tetra[2-(1-methoxyethyl)]-benzo(1,2-d:4,5-d′)bis(1,3)dithiole-4-yl}methyl sodium salt [EPA]”: in data set [1] (above pH 4), the “solubility in aqueous solutions” value is listed as “soluble”. Further, in data set [1] (pH less than 4), the particulate diameter entry is “greater than or equal to 10 microns” and the “solubility in aqueous solution” value is reported as “predominantly insoluble”.
Consider `CC(=O)C(=O)O` [^12C pyruvic acid], for which the “pH of resulting solution in the receiver” value in data set [2] amounted to 7.97.
